Values quoted from earlier work as cited in US20120157536A1, “COMPOSITION FOR TRANSDERMAL ADMINISTRATION OF NON-STEROIDAL ANTI-FLAMMATORY DRUG” (Polytherapeutics, Inc., priority 2010, published 2012).

Diclofenac Clearance, Cl (Goodman & Gilman): 4.2 mL/min/kg
SMILES: O=C(O)Cc1ccccc1Nc1c(Cl)cccc1Cl [Diclofenac, 2-(2,6-dichloro-anilino)-benzeneacetic acid]
Minimum effective diclofenac blood concentration (Nishihata et al. 1988): 50 ng/mL
